Source: article PMC9176681, “Evaluation of a flavonoid library for inhibition of interaction of HIV-1 integrase with human LEDGF/p75 towards a structure–activity relationship” (Annals of Medicine, 2022)
Where “and” joins values, the source holds several entries; their conditions need not be identical. Identical values can stand only once. Like-named read-outs stand apart in the source and are kept apart here.

Tests used:
IN-LEDGF/p75 interaction [1] = biological target: T1, IN-LEDGF/p75 interaction (Human immunodeficiency virus type 1 group M subtype B, UniProt P12497, C1427S/F1332K); test: biochemical; type: binding, HIV-1; settings: for inhibitory activity against IN-LEDGF/p75 interaction (in words): HTRF, 50 μM final concentration
T1 construct: His6 (C); made in house; host or cells: E. coli
Method: The inhibitory activities against the IBD-IN interaction were tested using HTRF assays according to a previous study. […] “Protein MIX” was prepared by mixing His6-HIV-1 IN (final concentration of 50 nM) and GST-IBD (final concentration of 25) in the assay buffer (25 mM Tris-HCl pH 7.5, 150 mM NaCl, 1 mg/ml BSA, 0.1% NP40, 2 mM MgCl2). […] To the 8 μl “protein MIX”, 2 μl of DMSO or compound (50 µM) dissolved in DMSO was added and mixed thoroughly. The concentrations of DMSO in the assay should be no more than 4%. The plate was incubated for 30 min at 25 °C. Then 10 μl premixed antibodies were added and mixed. The assay plate was incubated in the dark for 1 h at 25 °C. DMSO instead of the compound was used as a negative control. BI224436 was used as a positive compound for inhibition of IN-LEDGF/p75 interaction. […] Data were analysed and visualised in GraphPad Prism 5.0.

IN-LEDGF/p75 interaction [2] = biological target: T1, IN-LEDGF/p75 interaction; parameters: method as in PMID 24663024; settings: previous experiment result; read-out: IC50, inhibition of IN-LEDGF/p75 interaction, previous experiment result; cited from earlier work
IN = biological target: T2, IN (Human immunodeficiency virus type 1 group M subtype B, UniProt P12497, C1427S/F1332K); test: Biolayer interferometry (BLI) binding assay; parameters: species or system HIV-1; settings: 30 °C, PBS with 0.01% Tween-20
T2 construct: His6 (C); made in house; host or cells: E. coli

SMILES | inhibitory activity against IN-LEDGF/p75 interaction (in words) (IN-LEDGF/p75 interaction [1]) | further results
Cc1nc2ccccc2c(-c2ccc3c4c(ccnc24)CCO3)c1[C@H](OC(C)(C)C)C(=O)O [BI224436, reference compound] |  | IC50 (IN-LEDGF/p75 interaction [1]): 0.0188 µM; IC50 (IN-LEDGF/p75 interaction [2]): 0.011 µM
CC(C)=CCc1cc(-c2oc3cc(O)c(CC=C(C)C)c(O)c3c(=O)c2O)ccc1O [compound 1] | reduced | 
CC(C)=CCc1cc(-c2oc3cc(O)cc(O)c3c(=O)c2O)ccc1O [compound 2] | reduced | 
COc1cc(-c2oc3cc(O)cc(O)c3c(=O)c2O)ccc1O [compound 3] | reduced | 
COc1ccc(-c2oc3cc(O)cc(O)c3c(=O)c2O)cc1 [compound 4] | reduced | 
O=c1c(O)c(-c2ccc(O)c(O)c2)oc2cc(O)cc(O)c12 [compound 10] | effectively inhibited | 
COc1ccc(-c2oc3cc(O)cc(O)c3c(=O)c2O)cc1O [compound 12] | reduced | 
COc1cc(O)c2c(=O)c(OC)c(-c3ccc(O)c(OC)c3)oc2c1 [compound 14] | reduced | 
COc1ccc(-c2oc3cc(O)cc(O)c3c(=O)c2OC)cc1O [compound 15] | reduced | 
COc1cc2oc(-c3ccc(O)c(O)c3)c(OC)c(=O)c2c(O)c1OC [compound 16] | effectively inhibited | 
COc1cc(-c2oc3cc(O)c(OC)c(O)c3c(=O)c2OC)ccc1O [compound 17] | reduced | 
COc1cc(-c2oc3cc(OC)c(OC)c(O)c3c(=O)c2OC)ccc1O [compound 19] | reduced | 
O=c1cc(-c2ccc(O)c(O)c2)oc2cc(O)cc(O)c12 [compound 30, Luteolin] | most potent | Kd (IN): 1.3 µM
O=C1c2ccc(O)cc2OC(c2cc(O)c(O)c(O)c2)C1O (stereo not shown) [compound 43] | efficiently blocked | 
O=C1c2c(O)cc(O)cc2OC(c2cc(O)c(O)c(O)c2)[C@H]1O (stereo partly shown) [compound 47] | efficiently blocked | 
COc1cc(O)c2c(c1)OC(c1ccc(O)cc1)CC2=O (stereo not shown) [compound 49] | loss of activity | 
COc1cc(C2CC(=O)c3c(cc(O)c(OC)c3O)O2)cc(O)c1OC (stereo not shown) [compound 50] | loss of activity | 

SMILES | inhibitory activity against IN-LEDGF/p75 interaction (in words) (IN-LEDGF/p75 interaction [1]) | further results
COc1c(O)cc2c(c1O)C(=O)CC(c1ccc(O)cc1)O2 (stereo not shown) [compound 52] | loss of activity | 
COc1c(O)cc(O)c2c1O[C@@H](c1ccccc1O)CC2=O [compound 60] | loss of activity | 
CC(C)=CCc1c(O)ccc2c1O[C@@H](c1ccc(O)cc1)CC2=O [compound 64] | loss of activity | 
Oc1cc(O)c2c(c1)O[C@H](c1cc(O)c(O)c(O)c1)[C@H](O)C2 [compound 68] | effectively blocked | 
Oc1cc(O)c2c(c1)O[C@H](c1ccc(O)c(O)c1)[C@@H](O)C2 [compound 70] | effectively blocked | 
Oc1cc(O)c2c(c1)O[C@H](c1ccc(O)c(O)c1)[C@H](O)C2 [compound 71] | effectively blocked | 
COc1cc(O)c(OC)c(O)c1C(=O)/C=C/c1ccccc1 [compound 89] | drop in protein-protein interaction disruption | 
COc1ccccc1/C=C/C(=O)c1c(OC)cc(O)c(OC)c1O [compound 93] | drop in protein-protein interaction disruption | 
COc1cc(O)c(CC=C(C)C)c(O)c1C(=O)/C=C/c1ccc(O)cc1 [compound 95] | drop in protein-protein interaction disruption | 
C=C(C)C(O)Cc1c(O)cc(OC)c(C(=O)/C=C/c2ccc(O)cc2)c1O (stereo not shown) [compound 96] | drop in protein-protein interaction disruption | 
COc1cc(O)c(C(=O)/C=C/c2ccccc2)c(O)c1OC [compound 99] | drop in protein-protein interaction disruption | 
O=C1c2ccc(O)cc2OC(c2cc(O)c(O)c(O)c2)C1O (stereo not shown) [dihydrorobinetin] |  | Kd (IN): 1.4 µM
Oc1cc(O)c2c(c1)O[C@H](c1ccc(O)c(O)c1)[C@H](O)C2 [epicatechin] |  | Kd (IN): 1.7 µM
O=c1c(-c2ccc(O)cc2)coc2cc(O)cc(O)c12 [genistein] | worst inhibitory activity | Kd (IN): 3.6 µM and 2.7 µM
COc1cc(O)cc(O)c1C(=O)/C=C/c1ccc(O)cc1 [helichrysetin] |  | Kd (IN): 2.7 µM
O=c1c(O)c(-c2cc(O)c(O)c(O)c2)oc2cc(O)cc(O)c12 [myricetin] |  | Kd (IN): 1 µM
O=C1C[C@@H](c2ccc(O)cc2)Oc2cc(O)cc(O)c21 [naringenin] |  | Kd (IN): 1.4 µM and 1.9 µM
